Here are results for 5 compounds from ChEMBL document CHEMBL4024712, “Synthesis, stability and mechanistic studies of potent anticryptococcal hexapeptides” (Eur J Med Chem, 2017).

Series [1] has as its system Staphylococcus aureus. Nature of the series: Anti-bacterial activity against Staphylococcus aureus ATCC 29213 by CLSI method. Particulars: Staphylococcus aureus, ATCC 29213; call rule not given here. The class given is functional.
The test system of series [2] is Pichia kudriavzevii. Nature of the series: Fungicidal activity against Candida krusei ATCC 6258 after 18 to 24 hrs by Alamar blue assay. The class given is functional.
Series [3] concerns Pichia kudriavzevii. Nature of the series: Antifungal activity against Candida krusei ATCC 6258 after 18 to 24 hrs by Alamar blue assay. The class given is functional. Particulars: Pichia kudriavzevii, ATCC 6258.
The subject of series [4] is Mycobacterium intracellulare. Nature of the series: Bactericidal activity against Mycobacterium intracellulare ATCC 23068 after 68 to 72 hrs by Alamar blue assay. The format is functional.
Series [5] deals with Candida albicans. The experiment in a line: Antifungal activity against Candida albicans ATCC 90028 after 18 to 24 hrs by Alamar blue assay. The format is functional. Particulars: for MIC: Candida albicans, ATCC 90028.
Series [6] relates to Staphylococcus aureus. The experiment in a line: Bactericidal activity against Staphylococcus aureus ATCC 29213 by CLSI method. The format is functional.
In series [7] the test system is Mycobacterium intracellulare. Nature of the series: Anti-bacterial activity against Mycobacterium intracellulare ATCC 23068 after 68 to 72 hrs by Alamar blue assay. The class given is functional, cell-based. Particulars: for MIC: Mycobacterium intracellulare, ATCC 23068.
Series [8] has as its system Cryptococcus neoformans. The experiment in a line: Fungicidal activity against Cryptococcus neoformans ATCC 90113 after 68 to 72 hrs by Alamar blue assay. The class given is functional.
Series [9] relates to Escherichia coli. Nature of the series: Anti-bacterial activity against Escherichia coli ATCC 35218 by CLSI method. The class given is functional.
In series [10] the test system is Escherichia coli. Nature of the series: Bactericidal activity against Escherichia coli ATCC 35218 by CLSI method. The format is functional.
The subject of the next series is Pseudomonas aeruginosa. Nature of the series: Anti-bacterial activity against Pseudomonas aeruginosa ATCC 27853 by CLSI method. The format is functional.
The subject of series [11] is Candida albicans. The experiment in a line: Fungicidal activity against Candida albicans ATCC 90028 after 18 to 24 hrs by Alamar blue assay. The format is functional.
Another series has as its system Vero. The experiment in a line: Cytotoxicity against African green monkey Vero cells up to 10 ug/ml after 48 hrs by neutral red dye based assay. The class given is cell-based. Particulars: chlorocebus sabaeus.
Series [12] deals with Cryptococcus neoformans. The experiment in a line: Antifungal activity against Cryptococcus neoformans ATCC 90113 after 68 to 72 hrs by Alamar blue assay. The format is functional.
In a further series the test system is Nakaseomyces glabratus. The experiment in a line: Antifungal activity against Candida glabrata ATCC 90030 after 18 to 24 hrs by Alamar blue assay. The class given is functional.
Series [13] relates to Aspergillus fumigatus. The experiment in a line: Antifungal activity against Aspergillus fumigatus ATCC 90906 after 68 to 72 hrs by Alamar blue assay. The class given is functional.
Series [14] relates to Staphylococcus aureus. Nature of the series: Bactericidal activity against methicillin-resistant Staphylococcus aureus ATCC 33591 by CLSI method. The class given is functional.
Series [15] has as its system Staphylococcus aureus. The experiment in a line: Anti-bacterial activity against methicillin-resistant Staphylococcus aureus ATCC 33591 by CLSI method. The conditions noted are these: Staphylococcus aureus, ATCC 33591. The class given is functional.
In series [16] the test system is Aspergillus fumigatus. The experiment in a line: Fungicidal activity against Aspergillus fumigatus ATCC 90906 after 68 to 72 hrs by Alamar blue assay. The format is functional.

≈ marks a conversion by molar mass, not a printed value. Non-standard residues stand in square brackets, D forms with d. Residues, ends and D or L forms follow the SMILES beside them. His(τ-Bzl) = N[C@@H](Cc1cn(Cc2ccccc2)cn1)C(=O)O; Phe(4-Me) = Cc1ccc(C[C@H](N)C(=O)O)cc1; Cha = N[C@@H](CC1CCCCC1)C(=O)O; Phg = N[C@H](C(=O)O)c1ccccc1; Orn = NCCC[C@H](N)C(=O)O

As to `CC[C@@H](C)[C@@H](NC(=O)[C@H](CC1CCCCC1)NC(=O)[C@@H](Cc1c[nH]c2ccccc12)NC(=O)[C@@H](N)CCCN)C(=O)N[C@H](Cc1ccccc1)C(=O)N[C@@H](Cc1cn(Cc2ccccc2)cn1)C(N)=O` (H-[Orn][dW][Cha][dI][dF][His(τ-Bzl)]-NH2), the MIC came to 20 mg/L (≈ 20.9 µM) with Staphylococcus aureus [1]; 10 mg/L (≈ 10.4 µM) against Pichia kudriavzevii [3]; 20 mg/L (≈ 20.9 µM) against Candida albicans [5]; 20 mg/L (≈ 20.9 µM) in series [7]; 20 mg/L (≈ 20.9 µM) in the series on Escherichia coli [9] (Escherichia coli, ATCC 35218). Also, the MFC in the series with Pichia kudriavzevii [2] was found to be 10 mg/L (≈ 10.4 µM); against Cryptococcus neoformans [8] it was 2.5 mg/L (≈ 2.61 µM). Moreover, the MBC (in [4]; in the series with Staphylococcus aureus [6]; with Escherichia coli [10]) was 20 mg/L (≈ 20.9 µM) throughout.

Take `CC(C)[C@@H](NC(=O)[C@H](CC1CCCCC1)NC(=O)[C@@H](Cc1c[nH]c2ccccc12)NC(=O)[C@@H](N)CCCN)C(=O)N[C@H](Cc1ccccc1)C(=O)N[C@@H](Cc1cn(Cc2ccccc2)cn1)C(N)=O` (H-[Orn][dW][Cha][dV][dF][His(τ-Bzl)]-NH2): the 50% inhibitory concentration (IC50) entry in the series with Pseudomonas aeruginosa, with Nakaseomyces glabratus, in the series with Aspergillus fumigatus [13] and in the series on Escherichia coli [9] was “Not Active” throughout. For the same compound, the MFC against Candida albicans [11] and against Pichia kudriavzevii [2] was 20 mg/L (≈ 21.2 µM) each time. The MIC was found to be 20 mg/L (≈ 21.2 µM) in the series on Pichia kudriavzevii [3], 20 mg/L (≈ 21.2 µM) against Candida albicans [5], 20 mg/L (≈ 21.2 µM) in series [7] and 1.25 mg/L (≈ 1.32 µM) against Cryptococcus neoformans [12]. In addition, the Activity entry in the series with Vero is “Non-Toxic”.

As to `Cc1ccc(C[C@H](NC(=O)[C@@H](Cc2ccccc2)NC(=O)[C@@H](Cc2c[nH]c3ccccc23)NC(=O)[C@H](N)CCCNC(=N)N)C(=O)N[C@H](Cc2ccccc2)C(=O)N[C@@H](Cc2cn(Cc3ccccc3)cn2)C(N)=O)cc1` (H-[dR][dW][dF][Phe(4-Me)][dF][His(τ-Bzl)]-NH2), the half-inhibitory concentration (IC50) entry (in the series with Pseudomonas aeruginosa; in the series on Candida albicans [5]; in series [7]; with Nakaseomyces glabratus; with Aspergillus fumigatus [13]) was “Not Active” throughout. For the same compound, the MIC with Staphylococcus aureus [1] was 20 mg/L (≈ 19.2 µM); against Pichia kudriavzevii [3] it was 20 mg/L (≈ 19.2 µM); with Staphylococcus aureus [15] it was 20 mg/L (≈ 19.2 µM); against Escherichia coli [9] (Escherichia coli, ATCC 35218) it was 20 mg/L (≈ 19.2 µM). The minimal fungicidal concentration (MFC) against Pichia kudriavzevii [2] came out at 20 mg/L (≈ 19.2 µM); against Cryptococcus neoformans [8], 2.5 mg/L (≈ 2.4 µM). The MBC in the series with Staphylococcus aureus [14], in the series on Staphylococcus aureus [6] and against Escherichia coli [10] was 20 mg/L (≈ 19.2 µM) throughout. Besides, in the series with Vero, the Activity entry is listed as “Non-Toxic”.

In the case of `NCCC[C@H](N)C(=O)N[C@H](Cc1c[nH]c2ccccc12)C(=O)N[C@@H](CC1CCCCC1)C(=O)N[C@H](C(=O)N[C@H](Cc1ccccc1)C(=O)N[C@@H](Cc1cn(Cc2ccccc2)cn1)C(N)=O)c1ccccc1` (H-[Orn][dW][Cha][Phg][dF][His(τ-Bzl)]-NH2), the IC50 result with Pseudomonas aeruginosa, in the series with Nakaseomyces glabratus and with Aspergillus fumigatus [13] was “Not Active” in each case. Further, the MIC in the series on Staphylococcus aureus [1] amounted to 20 mg/L (≈ 20.4 µM); in the series on Pichia kudriavzevii [3], 10 mg/L (≈ 10.2 µM); in the series on Candida albicans [5] it was 20 mg/L (≈ 20.4 µM); against Staphylococcus aureus [15], 20 mg/L (≈ 20.4 µM). The compound further came in with an MFC in the series on Pichia kudriavzevii [2] of 10 mg/L (≈ 10.2 µM). Further, the MBC in [4] is 10 mg/L (≈ 10.2 µM); against Staphylococcus aureus [14] it was 20 mg/L (≈ 20.4 µM); against Staphylococcus aureus [6], 20 mg/L (≈ 20.4 µM). In addition, in the series on Vero, the Activity entry is “Non-Toxic”.

With `NCCC[C@H](N)C(=O)N[C@H](Cc1c[nH]c2ccccc12)C(=O)N[C@@H](CC1CCCCC1)C(=O)N[C@@H](CC1CCCCC1)C(=O)N[C@H](Cc1ccccc1)C(=O)N[C@@H](Cc1cn(Cc2ccccc2)cn1)C(N)=O` (H-[Orn][dW][Cha][Cha][dF][His(τ-Bzl)]-NH2), the IC50 result with Pseudomonas aeruginosa was “Not Active”; in the series with Nakaseomyces glabratus, “Not Active”; with Escherichia coli [9] (Escherichia coli, ATCC 35218, read-out: IC50), 10 mg/L (≈ 10 µM). For the same compound, the minimum inhibitory concentration (MIC) was 10 mg/L (≈ 10 µM) against Staphylococcus aureus [1]; 10 mg/L (≈ 10 µM) against Pichia kudriavzevii [3]; 10 mg/L (≈ 10 µM) with Candida albicans [5]; 1.25 mg/L (≈ 1.25 µM) against Cryptococcus neoformans [12]; 20 mg/L (≈ 20 µM) in the series on Aspergillus fumigatus [13] (Aspergillus fumigatus, ATCC 90906); 20 mg/L (≈ 20 µM) against Escherichia coli [9] (Escherichia coli, ATCC 35218). The values for the MFC against Candida albicans [11], in the series with Pichia kudriavzevii [2] and in the series on Aspergillus fumigatus [16] were 10 mg/L (≈ 10 µM), 10 mg/L (≈ 10 µM) and 20 mg/L (≈ 20 µM), respectively. For the same compound, the MBC in the series on Staphylococcus aureus [14] and against Escherichia coli [10] was 20 mg/L (≈ 20 µM) each time. Also, the Activity result in the series with Vero was “Non-Toxic”.
